Results on two compounds are retold here after patent publication US20070142378A1, “Method of treating restless legs syndrome and/or periodic limb movement disorder with (2s,3s) 2-(3-chlorophenyl)-3,5,5-trimethyl-2-morpholinol” (Smith Kline Beecham Corporation, priority 2003, published 2007).

Structures are written as SMILES. Where a name gives a salt, the structure may show the parent alone.

The target of data set [1] is T1, serotonin uptake, synaptosomes from rat hypothalamus (Rattus norvegicus, UniProt P31652).
T1 construct: Synaptosomes for use in obtaining in vitro uptake data were prepared from hypothalamus or striatum by gently homogenizing the tissue; from tissue; host or cells: rat hypothalamus synaptosomes
T1 sequence (P31652 whole entry): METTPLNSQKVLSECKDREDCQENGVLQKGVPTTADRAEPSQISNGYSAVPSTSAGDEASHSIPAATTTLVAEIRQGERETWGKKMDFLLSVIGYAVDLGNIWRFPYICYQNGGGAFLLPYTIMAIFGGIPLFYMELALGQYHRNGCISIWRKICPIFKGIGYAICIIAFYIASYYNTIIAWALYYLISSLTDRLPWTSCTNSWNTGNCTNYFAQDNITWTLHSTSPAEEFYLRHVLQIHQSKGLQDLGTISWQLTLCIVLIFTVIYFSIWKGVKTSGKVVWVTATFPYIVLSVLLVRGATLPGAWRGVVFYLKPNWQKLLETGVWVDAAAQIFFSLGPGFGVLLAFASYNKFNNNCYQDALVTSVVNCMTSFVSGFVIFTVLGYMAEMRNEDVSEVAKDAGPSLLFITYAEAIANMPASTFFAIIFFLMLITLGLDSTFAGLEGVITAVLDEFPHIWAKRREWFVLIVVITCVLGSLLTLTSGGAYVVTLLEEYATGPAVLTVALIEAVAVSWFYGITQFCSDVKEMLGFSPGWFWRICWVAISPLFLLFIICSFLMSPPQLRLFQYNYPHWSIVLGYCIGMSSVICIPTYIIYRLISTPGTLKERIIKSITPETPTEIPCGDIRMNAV
The data set can be described thus: In vitro synaptosomal uptake of [3H]-serotonin. It is filed as biochemical. As to conditions: at 30 μM. The source says: Similarities and differences. Molecular Pharmacology, 21: p.

In data set [2] the target is T2, dopamine transporter (DAT) (Homo sapiens, UniProt Q01959).
T2 construct: from tissue; host or cells: striatum of healthy male volunteers, in vivo PET with 11C-βCIT-FE
T2 sequence (Q01959 whole entry): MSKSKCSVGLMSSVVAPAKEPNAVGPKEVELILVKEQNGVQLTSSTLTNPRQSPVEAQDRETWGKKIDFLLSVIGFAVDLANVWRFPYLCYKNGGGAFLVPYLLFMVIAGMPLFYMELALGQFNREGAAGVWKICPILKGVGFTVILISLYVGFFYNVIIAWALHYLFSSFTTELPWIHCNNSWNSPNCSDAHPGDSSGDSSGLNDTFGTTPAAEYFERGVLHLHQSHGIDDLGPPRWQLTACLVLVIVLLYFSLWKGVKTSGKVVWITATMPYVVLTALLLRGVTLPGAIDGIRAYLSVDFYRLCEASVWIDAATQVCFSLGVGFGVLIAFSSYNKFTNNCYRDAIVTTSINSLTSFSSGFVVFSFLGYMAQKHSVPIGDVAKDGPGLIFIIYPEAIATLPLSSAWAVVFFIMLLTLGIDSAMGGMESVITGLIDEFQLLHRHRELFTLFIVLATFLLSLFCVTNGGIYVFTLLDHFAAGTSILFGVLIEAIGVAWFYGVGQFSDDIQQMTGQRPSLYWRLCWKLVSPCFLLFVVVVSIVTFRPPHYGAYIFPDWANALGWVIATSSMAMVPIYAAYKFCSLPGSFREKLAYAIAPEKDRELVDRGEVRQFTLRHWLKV
The data set can be described thus: Dopamine transporter (DAT) receptor occupancy study, PET with 11C-βCIT-FE. It is filed as in vivo. As to conditions: for DAT receptor occupancy: Part A, healthy male volunteers, PET 2.5 hours after initiation of dosing; for average DAT receptor occupancy: Part B, 60 mg modified release oral once daily for 6 days. The method, then:
The study was conducted in two parts. Part A utilized positron emission tomography (PET) to characterize the concentration-percent occupancy relationship with respect to the dopamine transporter (DAT) after dosing with intravenous compound of formula (I) to pseudo-steady-state. Part B utilized PET to evaluate the time course of occupancy at the dopamine transporter following steady-state dosing of the compound of formula (I) via a modified release oral formulation. The tracer used in this study to assess the occupancy at the DAT was ^11C-βCIT-FE.
Part A. Six healthy male volunteers each received a 20.6 mg intravenous dose of the compound of formula (I) administered via a 2-hour loading infusion followed by a 2-hour maintenance infusion to achieve pseudo-steady-state. Each subject then received two additional doses (61.8 mg and 91.2 mg) of the compound of formula (I), with each dose separated by 3 weeks. A baseline PET scan was performed between 1 and 7 days prior to first dosing with formula (I), and then each post-dose PET scan performed 2.5 hours after the initiation of each of the three dosing regimens.
The concentrate solution for infusion was formulated to contain 10 mg free base equivalent per mL as the hydrochloride salt of the compound of formula (I), and consisted of a clear, colorless solution, pH adjusted to approximately 4.5, buffered with 50 mmol citrate buffer. The product was diluted to a total volume of 250 mL with 0.9% weight-to-volume ratio (w/v) sodium chloride injection prior to being administered.
Part B. Six healthy male volunteers received 60 mg of the compound of formula (I) via a modified release oral formulation once daily for 6 days in order to achieve steady-state by the last day. Four ^11C-βCIT-FE PET scans were performed for each subject, the first between 1 and 7 days prior to dosing and the remaining three at 6, 12 and 24 hours following the final dose on Day 6. The oral formulations were uncoated tablets, containing 20 mg and 40 mg of the compound of formula (I) as the hydrochloride salt details of the formulations are set out below as Examples 6 and 7 (prepared by an analogous method to Examples 1 to 5 above).

The target of data set [3] is T3, noradrenaline (NA) uptake, synaptosomes from rat hypothalamus (Rattus norvegicus, UniProt Q63380).
T3 construct: Synaptosomes for use in obtaining in vitro uptake data were prepared from hypothalamus or striatum by gently homogenizing the tissue; from tissue; host or cells: rat hypothalamus synaptosomes (1100 x g supernatant)
T3 sequence (Q63380 1-617): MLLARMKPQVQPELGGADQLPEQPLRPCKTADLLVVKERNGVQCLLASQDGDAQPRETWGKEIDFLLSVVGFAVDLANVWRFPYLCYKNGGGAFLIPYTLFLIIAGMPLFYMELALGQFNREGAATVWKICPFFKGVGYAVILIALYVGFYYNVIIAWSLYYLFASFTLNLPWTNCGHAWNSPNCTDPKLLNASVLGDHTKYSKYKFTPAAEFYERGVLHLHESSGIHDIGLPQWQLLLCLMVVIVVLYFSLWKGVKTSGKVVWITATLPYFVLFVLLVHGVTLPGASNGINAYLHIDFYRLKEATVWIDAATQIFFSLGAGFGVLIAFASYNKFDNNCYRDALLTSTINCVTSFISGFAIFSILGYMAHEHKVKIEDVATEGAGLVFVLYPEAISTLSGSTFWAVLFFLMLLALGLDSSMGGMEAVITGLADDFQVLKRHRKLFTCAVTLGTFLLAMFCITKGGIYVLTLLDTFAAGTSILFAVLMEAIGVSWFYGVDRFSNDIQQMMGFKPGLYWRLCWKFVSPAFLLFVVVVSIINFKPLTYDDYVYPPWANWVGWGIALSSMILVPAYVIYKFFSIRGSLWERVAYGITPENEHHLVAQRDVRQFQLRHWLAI
Put plainly: In vitro synaptosomal uptake of [3H]-NA. In kind it is biochemical. As to the method: In vitro uptake was determined, as reported previously, using synaptosomes prepared from rat caudoputamen (for dopamine uptake) and hypothalamus (for NA and serotonin uptake) using [^3H]-dopamine, [^3H]-NA and [^3H]-serotonin as transport substrates, respectively. See Eckhardt, S. B., R. A. Maxwell, and R. M. Ferris, A Structure-Activity Study of the Transport Sites for the Hypothalamic and Striatal Catecholamine Uptake Systems. Similarities and differences. Molecular Pharmacology, 21: p. 374-9,1982
Synaptosomes for use in obtaining in vitro uptake data were prepared from hypothalamus or striatum by gently homogenizing the tissue in a 0.3 M sucrose/25 mM Tris pH 7.4 buffer containing iproniazid phosphate to inhibit monoamine oxidase. The homogenate was centrifuged at 1100×g at 4° C. for 10 min and the supernatant was used for uptake studies. […] Under these conditions uptake was linear with respect to both for substrate and tissue (with <5% total substrate transported). Non-specific uptake was defined as uptake at 0° C. [^3H]-substrate, which had been transported into synaptosomes, was separated from free [^3H]-substrate by filtration over GF/B filters and washing with cold Krebs-Henseleit buffer. The filters were counted for tritum in a liquid scintillation spectrometer.

Data set [4] relates to cell-lines expressing human monoamine transporters. The data set can be described thus: Compound-induced cytotoxicity in the transporter-expressing cells. It is filed as cell-based. The following applies: at any of the concentrations causing reuptake inhibition.

As for `C[C@@H]1NC(C)(C)CO[C@@]1(O)c1cccc(Cl)c1` [Formula (I), (+)-(2S,3S)-2-(3-chlorophenyl)-3,5,5-trimethyl-2-morpholinol], in data set [1], the “inhibition of serotonin uptake” value was “no inhibition”. For the same compound, the DAT receptor occupancy in data set [2] (20.6 mg intravenous) worked out at 14±0.38%; in data set [2] (61.8 mg intravenous), 37±8.0%; in data set [2] (91.2 mg intravenous) it was 47±6.8%. The “average DAT receptor occupancy” value in data set [2] (6 hours after the last dose) came to 29±5.3%; in data set [2] (during the following 6 hours (12 hour scan)) it was 27±11.3%. The compound further registered an IC50 in data set [3] of 1100 nM.
For the compound `C[C@@H]1NC(C)(C)CO[C@@]1(O)c1cccc(Cl)c1` [Formula (I).HCl, (+)-(2S, 3S)2-(3-chlorophenyl)-3,5,5-trimethyl-2-morpholinol hydrochloride], in data set [4], the cytotoxicity entry is “No cytotoxicity was observed”.

As usually defined, the IC50 is the point on the concentration scale where inhibition reaches its midpoint. The low end stands for higher potency, the high end for lower potency.
